Paper PMC9995496, “A screen for MeCP2-TBL1 interaction inhibitors using a luminescence-based assay” (Scientific Reports, 2023)
Counter-ions that a name gives are not always drawn. Like-named read-outs stand apart in the source and are kept apart here.

System: PRKACA-PRKAR2A interaction (SmBiT-PRKACA / LgBiT-PRKAR2A), protein kinase A
Set-up: NanoLuc complementation counter-screen in cell extract, PRKACA with PRKAR2A, loss of luminescence, detects NanoLuc interference
Conditions: 0.5 h, 20 µM, inhibitor
[1] = counter-screen for NanoLuc interference
[2] = counter-screen for NanoLuc interference, Inh (PKA)

Compound | Inh (PKA) [1] | other results
O=S(=O)(c1cccc2cnccc12)N1CCCNCC1 [UM0141906:01, Fasudil (HA-1077) HCl] | 33.96% | 
CCCNC(=O)Nc1ccc(Oc2ncnc3cc(OC)c(OC)cc23)cc1Cl [UM0141907:01, KRN 633] | 0.03165% | 
O=C(O)c1cc(/N=N/c2ccc(S(=O)(=O)Nc3ccccn3)cc2)ccc1O [UM0141908:01, Sulfasalazine] | 56.84% | 
Nc1ccn(C[C@@H](CO)OCP(=O)(O)O)c(=O)n1 [UM0141909:01, Cidofovir] | -0.4944% | 
CN(C)Cc1cccc(N/C(=C2\C(=O)Nc3cc(C(N)=O)ccc32)c2ccccc2)c1 [UM0141912:01, BIX 02188] | 13.5% | 
CN1CCCCC1Cn1cc(C(=O)c2cc([N+](=O)[O-])ccc2I)c2ccccc21 (stereo not drawn) [UM0141913:01, AM1241] |  | Inh (PKA): 12.3%
CCOc1ccc(Cc2cc([C@@H]3O[C@H](CO)[C@@H](O)[C@H](O)[C@H]3O)ccc2Cl)cc1 [UM0141914:01, Dapagliflozin] | 0.9919% | 
COc1cc(Nc2ncc(F)c(Nc3ccc4c(n3)NC(=O)C(C)(C)O4)n2)cc(OC)c1OC [UM0141915:01, R406 (free base)] |  | Inh (PKA) [2]: 51.96%
CCCCCCCCCCCCc1ccc(S(=O)(=O)Nc2nncs2)cc1 [UM0141916:01, PHT-427] | 11.59% | 
Cc1nc(-c2ccc(OCC(C)C)c(C#N)c2)sc1C(=O)O [UM0141917:01, Febuxostat] | 17.81% | 
COc1ccc2cc(-c3nc(-c4ccc([S+](C)[O-])cc4)[nH]c3-c3ccncc3)ccc2c1 (stereo not drawn) [UM0141919:01, Tie2 kinase inhibitor] | 68.85% | 
CN1C/C(=C/c2ccc(B(O)O)cc2)C(=O)/C(=C\c2ccc(B(O)O)cc2)C1 [UM0141922:01, AM 114] | 1.277% | 
NCCCC[C@@H]1NC(=O)[C@@H](Cc2ccccc2)NC(=O)[C@H](CC(=O)O)NC(=O)CNC(=O)[C@H](CCCN=C(N)N)NC1=O [UM0141923:01, Cyclo (-RGDfK)] | -1.971% | 
COC(=O)C[C@H](NC(=O)[C@@H](NC(=O)c1ccc2ccccc2n1)C(C)C)C(=O)COc1c(F)cccc1F [UM0141924:01, Q-VD(OMe)-OPh] | 13.3% | 
CO[C@H]1C[C@@H]2CC[C@@H](C)[C@@](O)(O2)C(=O)C(=O)N2CCCC[C@H]2C(=O)O[C@H]([C@H](C)C[C@@H]2CC[C@@H](O)[C@H](OC)C2)CC(=O)[C@H](C)/C=C(\C)[C@@H](O)[C@@H](OC)C(=O)[C@H](C)C[C@H](C)/C=C/C=C/C=C/1C [UM0141925:01, Rapamycin (Sirolimus)] | 2.249% | 
CCOC(=O)C1=C(N)Oc2ccc(Br)cc2[C@H]1[C@H](C#N)C(=O)OCC [UM0141926:01, HA14-1] | 18.52% | 
CO[C@H]1C[C@@H]2CC[C@@H](C)[C@@](O)(O2)C(=O)C(=O)N2CCCC[C@H]2C(=O)O[C@H]([C@H](C)C[C@@H]2CC[C@@H](OCCO)[C@H](OC)C2)CC(=O)[C@H](C)/C=C(\C)[C@@H](O)[C@@H](OC)C(=O)[C@H](C)C[C@H](C)/C=C/C=C/C=C/1C [UM0141927:01, Everolimus (RAD001)] | 0.7572% | 
CC(NC(=O)[C@H](Cc1ccccc1)NC(=O)OCc1ccccc1)C(=O)CF (stereo partly drawn) [UM0141928:01, Z-FA-FMK] | 4.07% | 
Nc1ccccc1NC(=O)c1ccc(CNC(=O)OCc2cccnc2)cc1 [UM0141929:01, Entinostat (MS-275,SNDX-275)] | 3.043% | 
CC(C)CCCCC(=O)N[C@@H](CO)C(=O)N[C@@H](CC(C)C)C(=O)[C@@]1(CO)CO1 [UM0141930:01, Dihydroeponemycin] | 3.421% | 
C/C=C1\NC(=O)[C@H]2CSSCC/C=C/[C@H](CC(=O)N[C@H](C(C)C)C(=O)N2)OC(=O)[C@H](C(C)C)NC1=O [UM0141931:01, Romidepsin (FK228, depsipeptide)] | 2.202% | 

Compound | Inh (PKA) [1] | other results
CN(C(=O)c1cc2ccccc2cc1C(=O)C(c1cccc2ccccc12)P(=O)(O)O)C1CCN(C(=O)c2ccccc2)CC1 (stereo not drawn) [UM0141932:01, Cathepsin G Inhibitor I] | 16.06% | 
C=CCc1cccc(/C=N/NC(=O)CN2CCN(Cc3ccccc3)CC2)c1O [UM0141933:01, PAC-1] | 9.934% | 
CC(C)C[C@H](NC(=O)[C@H](CC(C)C)NC(=O)[C@H](CC(C)C)NC(=O)OCc1ccccc1)B(O)O [UM0141934:01, MG-262] | 2.364% | 
CN([C@@H](Cc1ccc(OS(=O)(=O)c2cccc3cnccc23)cc1)C(=O)N1CCN(c2ccccc2)CC1)S(=O)(=O)c1cccc2cnccc12 [UM0141935:01, KN-62] | 9.099% | 
C[C@@]1(F)[C@H](O)[C@@H](CO)O[C@H]1n1ccc(=O)[nH]c1=O [UM0141938:01, PSI-6206] | 1.416% | 
CC(C)[C@H](O)C(=O)N[C@@H](C)C(=O)N[C@@H]1C(=O)N(C)CCc2ccccc21 [UM0141939:01, Semagacestat (LY450139)] | -0.02723% | 
C[C@@H]1O[C@@H](CC(=O)O)CC2=C1C(=O)c1c(O)cccc1C2=O [UM0141940:01, Nanaomycin A] | 18.84% | 
COc1cc2ncnc(Nc3cccc(Br)c3)c2cc1OC [UM0141943:01, PD153035 hydrochloride] | 18.98% | 
CC(C)c1nc(CN(C)C(=O)N[C@H](C(=O)N[C@@H](Cc2ccccc2)C[C@H](O)[C@H](Cc2ccccc2)NC(=O)OCc2cncs2)C(C)C)cs1 [UM0141947:01, Ritonavir] | 6.592% | 
Cc1cccc(C)c1OCC(=O)N[C@@H](Cc1ccccc1)[C@@H](O)C[C@H](Cc1ccccc1)NC(=O)[C@H](C(C)C)N1CCCNC1=O [UM0141948:01, Lopinavir] | 17.52% | 
COC(=O)N[C@H](C(=O)N[C@@H](Cc1ccccc1)[C@@H](O)CN(Cc1ccc(-c2ccccn2)cc1)NC(=O)[C@@H](NC(=O)OC)C(C)(C)C)C(C)(C)C [UM0141949:01, Atazanavir] |  | Inh (PKA) [2]: 2.849%
CC(C)CN(C[C@@H](O)[C@H](Cc1ccccc1)NC(=O)O[C@H]1CO[C@H]2OCC[C@H]21)S(=O)(=O)c1ccc(N)cc1 [UM0141950:01, Darunavir] | 4.833% | 
COc1cc2c(cc1OC)CN(CCc1ccc(NC(=O)c3cc(OC)c(OC)cc3NC(=O)c3cnc4ccccc4c3)cc1)CC2 [UM0141951:01, Tariquidar] | 12.46% | 
N#CSc1cc(SC#N)c(N)nc1N [UM0141952:01, PR-619] | 19.82% | 
COc1ccc(CCC(=O)Nc2nc3ccc(Cl)cc3s2)cc1OC [UM0141953:01, KY 02111] | 9.326% | 
COc1ccc(-c2ccc3c(N4CCOC[C@@H]4C)nc(N4CCOC[C@@H]4C)nc3n2)cc1CO [UM0141954:01, AZD8055] | 6.662% | 
CC(C)(C)n1nc(-c2ccc(Cl)cc2)c2c(N)ncnc21 [UM0141956:01, PP 2 (AG 1879)] | 33.15% | 
O=C(NCCCNc1nc(Nc2cccc(NC(=O)N3CCCC3)c2)ncc1I)c1cccs1 [UM0141957:01, BX795] | 37.99% | 
O=C(Nc1ccc(CN2CCOCC2)cc1)c1ccc(-c2cccc(Cl)c2)o1 [UM0141958:01, CID 2011756] | 20.99% | 
CCOC(=O)[C@@H](N)CCC(=O)N[C@@H](CSCc1ccccc1)C(=O)N[C@@H](C(=O)OCC)c1ccccc1 [UM0141959:01, Ezatiostat] |  | Inh (PKA) [2]: 2.198%
N#Cc1c(Oc2ccc(F)c(NC(=O)Cc3cccc(C(F)(F)F)c3)c2)ccc2nc(NC(=O)C3CC3)sc12 [UM0141960:01, TAK-632] | 4.577% | 
